“Also recorded” adds a separate entry of the source.
How the values were obtained:
[1] = test system: neutrophil extracellular trap (NET) formation; test: In vitro NET formation by stimulated human PMNs (live cell imaging, NET-associated histone H3 release); type: cell-based; settings: for PMA-stimulated NET deployment: PMA 20 nM, 1 hour preincubation; for PMA-stimulated NET deployment / NET formation triggered by heme: peptides 1 nM; for NET formation triggered by LPS: adult PMNs preincubated with agent, LPS 100 ng/mL, 1 hour; for NET formation triggered by heme: heme 1 μM; for relative inhibition of NETosis (order of potency): initial comparison of NRPs
Experimental: Qualitative assessment of NET formation was performed as previously reported (see Yost C C, et al., Blood. 2009; 113 (25):6419-27 and McInturff A M, et al., Blood. 2012; 120 (15):3118-25). Briefly, primary PMNs isolated from preterm infants, healthy term infants, and healthy adults (2×10^6 cells/mL) were incubated with control buffer or stimulated with indicated agonists or bacteria for 1 hour at 37° C. in 5% CO2/95% air on glass coverslips coated with poly-L-lysine. For selected experiments, primary PMNs were pre-incubated with autologous plasma, cord blood plasma, nNIF (0.2-70 nM), CRISPP (0.2-70 nM), nNIF-SCR (1 nM), or CRISPP-SCR (1 nM) for one hour prior to stimulation. After pre-incubation and/or stimulation, PMNs were gently washed with PBS and incubated with a mixture of cell permeable (SYTO® Green, MOLECULAR PROBES®) and impermeable (SYTOX® Orange, MOLECULAR PROBES®) DNA fluorescent dyes. Confocal microscopy was accomplished using a FV1000 IX81 confocal microscope and FLUOVIEW™ software (OLYMPUS™). Both 20× and 60× objectives were used. Z-series images were obtained at a step size of 1 μm over a range of 20 μm for each field. FLUOVIEW™ and ADOBE™ PHOTOSHOP™ CS2 software was used for image processing.
Using BSL 2 safety protocols, primary PMNs isolated from healthy adults (2×10^6 cells/mL) were incubated with mock infection buffer or live dengue virus (M010.05) as for live cell imaging. After a 1-hour incubation, the infected PMNs were fixed with 2% p-FA for 10 minutes prior to incubation with fluorescently-labeled, cell-permeable and cell-impermeable DNA dyes, and imaged as for live cell imaging using confocal microscopy.
NET-associated histone H3 content was determined as previously described (see McInturff A M, et al., Blood. 2012; 120 (15):3118-25). After live cell imaging of control and stimulated primary PMNs (2×10^6/mL; various agonists), the cells were incubated with PBS containing DNase (40 U/mL) for 15 minutes at room temperature to break down and release NETs formed in response to stimulation. The supernatant was gently removed and centrifuged at 420×g for 5 minutes. The cell-free supernatant was then mixed 3:1 with 4× Laemmli buffer prior to western blotting. A polyclonal primary antibody against human histone H3 protein (CELL SIGNALING®) and infrared-conjugated secondary antibodies (LI-COR®) were used. Imaging and densitometry were performed on the ODYSSEY® infrared imaging system)(LI-COR®). This assay was previously validated as a surrogate for NET formation under in vitro conditions (see McInturff A M, et al., Blood. 2012; 120 (15):3118-25) as employed in the present studies.
(§1) Without being bound by any specific theory, it was hypothesized that placentally expressed HTRA1, a serine protease, regulates the formation of NET-inhibitory peptides through cleavage of AAT. To test this hypothesis, term and preterm placenta were assessed for HTRA1 expression via western blotting. HTRA1 and AAT plasma expression from term and preterm infants and adults were determined by ELISA. Bioactive (0.5 μg) or placental eluted HTRA1 was incubated with AAT (8 μM) for 18 hours at 37° C. Carboxy-terminus fragments of AAT were detected using western blotting and mass spectrometry. The reaction products were incubated for 1 hour with PMNs isolated from healthy adults prior to LPS stimulation (100 ng/mL) and assessed for NET formation using live cell imaging. Reactive oxygen species were assessed using flow cytometry, chemotaxis using a modified Boyden chamber assay, and bacterial killing using E. coli.

[2] = test system: reactive oxygen species generation by PMNs; test: Reactive oxygen species generation (dihydrorhodamine, flow cytometry); type: cell-based, human; settings: LPS 100 ng/mL, 1 hour
Experimental: FIG. 6B is a graph depicting reactive oxygen species generation that was measured by dihydrorhodamine detection after LPS stimulation (100 ng/mL, 1 hour).
Human PMNs isolated from healthy adult whole blood were resuspended to a concentration of 2×10^6 cells/mL in M-199 media and pre-incubated±CRISPP (1 nM) or CRISPP-SCR (1 nM) peptide for 1 hour at 37° C. in 5% CO2/95% air. The PMNs were then stimulated with LPS (100 ng/mL) for 1 hour, washed, and resuspended with a dihydrorhodamine ([…]; MOLECULAR PROBES®) and catalase (1000 Units/mL; SIGMA-ALDRICH®) mixture and incubated at 37° C. for 10 minutes. After incubation, samples were placed at 4° C. and analyzed for ROS-dependent fluorescence using flow cytometry as performed in the University of Utah core facility (BECTON DICKINSON™, […]™ software).
as §1, with “The reaction products were incubated for 1 hour with PMNs isolated from healthy adults prior to LPS stimulation (100 ng/mL) and assessed for NET formation using live cell imaging. Reactive oxygen species were assessed using flow cytometry, chemotaxis using a modified Boyden chamber assay, and bacterial killing using E. coli.” left out

[3] = test system: nuclear histone H3 citrullination; test: Histone H3 citrullination in PMA-activated neutrophils (immunocytochemistry); type: cell-based, human; settings: PMA 20 nM, 15 minutes; peptides 1 nM, Cl-amidine 10 μM
Source text: Green fluorescence=citrullinated-histone H3, magenta fluorescence=nuclear DNA (60× magnification; scale bar=20 μm). The right panel depicts Histone H3 citrullination that was quantified using IMAGEJ™ software (mean citrullinated-histone H3 pixel area per cell±SEM) (n=3). One way ANOVA with Tukey's post hoc testing, *P<0.05.
Imaging was accomplished via confocal microscopy using a FV1000 IX81 confocal microscope and FLUOVIEW™ software (OLYMPUS™). Semi-quantitation was accomplished using IMAGEJ™ software (NIH) to determine the average citrullinated histone H3 content per cell.

previously-formed NETs = test: Post-treatment of previously formed NETs (dismantling); type: cell-based, human; settings: agent added after LPS stimulation; nNIF, CRISPP 1 nM; DNase 3.78 U/mL
Experimental: FIG. 4A is a series of images depicting neutrophils isolated from venous blood of healthy adults that were incubated in medium alone (Control) or activated with LPS (100 ng/mL). CRISPP (1 nM) was added at 0, 30, or 60 minutes after LPS, and the presence of NETs was assessed by live cell imaging as in FIG. 1A after an additional 1 hour of incubation (20× magnification; scale bar=100 μm). The images are representative of three separate experiments.
For selected experiments, primary PMNs were pre-incubated with autologous plasma, cord blood plasma, nNIF (0.2-70 nM), CRISPP (0.2-70 nM), nNIF-SCR (1 nM), or CRISPP-SCR (1 nM) for one hour prior to stimulation. After pre-incubation and/or stimulation, PMNs were gently washed with PBS and incubated with a mixture of cell permeable (SYTO® Green, MOLECULAR PROBES®) and impermeable (SYTOX® Orange, MOLECULAR PROBES®) DNA fluorescent dyes. Confocal microscopy was accomplished using a FV1000 IX81 confocal microscope and FLUOVIEW™ software (OLYMPUS™). Both 20× and 60× objectives were used. Z-series images were obtained at a step size of 1 μm over a range of 20 μm for each field. FLUOVIEW™ and ADOBE™ PHOTOSHOP™ CS2 software was used for image processing.

KFNKPFVFLMIEQNTKSPLFMGKVVNPTQ (listed as Homo sapiens) [nNIF]
PMA-stimulated NET deployment [1]: blocked
NET formation triggered by LPS [1]: potent NET-inhibitory activity; also recorded: inhibits NET formation; also recorded: inhibited LPS-stimulated NET deployment; also recorded: inhibit NET formation at nanomolar concentrations
NET formation triggered by heme [1]: inhibit
relative inhibition of NETosis (order of potency) [1]: nNIF ≈CRISPP>A1ATm^358
generation of reactive oxygen species (ROS) [2]: did not inhibit
nuclear histone H3 citrullination [3]: inhibited
degradation or dismantling of previously-formed NETs (previously-formed NETs): do not degrade or dismantle

M_IPPEVKFNKPFVFLMIDQNTKVPLFMGK [CRISPP, consensus peptide based on factors present in the blood of patients with cancer]
PMA-stimulated NET deployment [1]: blocked
NET formation induced by live Staphylococcus aureus ([1]; S. aureus MOI 100:1, peptide 1 nM): inhibited
NET formation triggered by LPS [1]: inhibits NET formation; also recorded: inhibited LPS-stimulated NET deployment; also recorded: inhibit NET formation at nanomolar concentrations
NET generation stimulated by dengue virus ([1]; dengue virus MOI 0.05:1, peptide 1 nM): inhibited
NET formation triggered by heme [1]: inhibit
relative inhibition of NETosis (order of potency) [1]: nNIF ≈CRISPP>A1ATm^358
generation of reactive oxygen species (ROS) [2]: did not inhibit; also recorded: not inhibited
nuclear histone H3 citrullination [3]: inhibited
degradation or dismantling of previously-formed NETs (previously-formed NETs): do not degrade or dismantle

— patent publication US10857201B2, “NNIF and nNIF-related peptides and related methods” (UNIVERSITY OF UTAH RESEARCH FOUNDATION, priority 2016, dated 2020)
